Assays:
[1] = target: SARS-CoV-2 Main Protease (SARS-CoV-2) (UniProt P0DTD1)
[2] = target: SARS-CoV-2 Main Protease (SARS-CoV-2) (UniProt P0DTD1); remark: listed apart in the source

Structure (SMILES)	inhibition ([1]; 20.0 µM) [%]	inhibition ([1]; 50.0 µM) [%]	inhibition ([2]; 50.0 µM) [%]	IC50 [1] [µM]	IC50 [2] [µM]	inhibition ([2]; 20.0 µM) [%]
CNCCN(C)C(=O)C(=O)N1Cc2ccccc2C(c2ccccc2)C1 (stereo not drawn)	-1.83	-2.83	0	–	–	–
Cc1cccc(C)c1NC(=O)CN1C(=O)C(=O)c2ccccc21	-5.56	-2.09	0	–	–	–
COC(=O)c1ccc(-c2cc(Cl)cc(CC(=O)Nc3cnccc3C)c2)c(OC)c1	–	–	–	12.7	12	–
COc1ccc(CN2C(=O)C(=O)c3cc(Br)cc(C)c32)cc1OC	-2.84	0.559	99.3	–	1.23	–
CC(NC(=O)CCl)c1cc(F)cc(Cl)c1 (stereo not drawn)	40.6	74.5	100	–	21	–
COC(=O)[C@H](CO)NC(=O)[C@H](Cc1ccccc1)NC(=O)OCc1ccccc1 (stereo in doubt)	1.06	2.61	0	–	–	–
Cc1cc(C)c(C#N)c(Sc2ncnc3c2nnn3Cc2ccccc2)n1	79	97.7	–	–	0.255	–
CO[C@@H]1C[C@@H](COc2cccnc2)N(c2ncccn2)C1 (stereo in doubt)	-6.63	-1.19	0	–	–	–
COc1cc(Cl)cc(CC(=O)Nc2cnccc2C)c1	24.6	48.3	–	–	43.6	–
O=C(Nc1ccc([N+](=O)[O-])cc1Cl)c1cc(Cl)ccc1O	–	-22.8	21	–	–	–
O=S(=O)(Cc1ccccc1F)c1oc(-c2ccc(F)cc2)nc1S(=O)(=O)c1ccccc1	49	95.9	–	–	0.0992	–
CCN(Cc1cccc(-c2ccncc2)c1)C(=O)Cn1nnc2ccccc21	3.37	15.6	0	–	–	–
Cc1cc(Cl)cc(CC2CCN(C(=O)CCl)CC2)c1	95.1	98.3	100	–	1.24	–
CN1CCN(C(=O)CNc2c(S(N)(=O)=O)ccc3ccccc23)CC1	-0.961	0.321	0	–	–	–
O=C(Cc1cc(Cl)cc(OC2CC(=O)N2)c1)Nc1cncc2ccccc12 (stereo not drawn)	–	–	–	0.203	0.157	–
C[C@@H]1CS/C(=N\NC(=O)C(=O)C(NC(=O)C2CCCCCC2)C2CCOCC2)N1C (stereo in doubt)	–	2.64	21	–	–	–
CC(=O)/C(C#N)=C(\O)Nc1ccc(C(F)(F)F)cc1	-2.89	-3	22.2	–	–	–
CCc1cccc(CC)c1NC(=O)CN1C(=O)C(=O)c2cc(OC)ccc21	-6.58	-0.841	13	–	–	–
COc1ccc(-n2cc(CN3CCN(C(=O)CCl)CC3)nn2)cc1	10.9	24.9	24.1	–	–	–
C=CC(=O)N(c1ccc(C(C)OC)cc1)C(C(=O)Nc1cccc(CC)c1)c1cccnc1 (stereo not drawn)	36.6	63.7	–	–	–	4.44
O=C(NCc1ccc2c(c1)OCO2)c1nc(S(=O)(=O)Cc2ccccc2)ncc1Cl	98.5	99.8	–	–	0.509	–
CCOc1ccccc1OC1CCN(C(=O)c2c(C)c(=O)[nH]c3ccccc23)C1 (stereo not drawn)	0.342	4.57	0	–	–	–
O=C(NCCN1CCN(C(=O)CCl)CC1)c1cccc2ccccc12	6.97	4.69	23.8	–	–	–
CC(C)Cn1cc(NC(=O)NCCc2ccc(Cl)cc2)c2ccccc2c1=O	22.5	-1.58	–	–	95.9	–
COc1ccc(Cl)cc1N1CCN(Cc2cc(=O)[nH]c3ccccc23)C1=O	-1.82	4.69	0	–	–	–
CC(C)n1cnnc1CNC(=O)C1CCOc2ccccc21 (stereo not drawn)	-4.11	-1.11	0	–	–	–
CN1CCN(C(=O)Cc2c[nH]c3ncc(C(=O)NCCc4c[nH]c5ccc(F)cc45)cc23)CC1	-1.5	7.57	8.74	–	–	–
CC(=O)N1CCN(CC(=O)Nc2cncc3ccccc23)CC1	–	–	42.4	71.7	72.5	–
Cc1cc(S(=O)(=O)c2c([N+](=O)[O-])cc(C(F)(F)F)cc2[N+](=O)[O-])c(Cl)cc1Cl	–	9.61	34.8	–	–	–
Cc1ccn2c(-c3ccc4[nH]ncc4c3)c(-c3ccc(F)cc3)nc2c1	0.801	0.943	50.8	–	–	–

Reference: the COVID Moonshot data (paper PMC11187573), “Identification of SARS-CoV-2 Mpro inhibitors through deep reinforcement learning for de novo drug design and computational chemistry approaches” (RSC Medicinal Chemistry, 2024)
